Measurements published in PMC10033419, “Blocking NS3–NS4B interaction inhibits dengue virus in non-human primates” (Nature, 2023).
Values joined by “and” are separate entries in the source; they are usually repeats but may differ in a detail not shown here. Identical values can stand only once.

Experiments:
DENV-3 G5 Brazil = format: cell-based; conditions: T108A in NS4B
[1] = ATPLite cell viability assay; format: cell-based, African green monkey; conditions: African green monkey, Vero cells
Method: (§1) In parallel, the toxicity was measured using an ATPLite cell viability luminescence assay (PerkinElmer). The assays were performed in three different cell types (Vero, Huh-7 and THP-1/DC-SIGN) as described in ref. [3] to exclude cell-specific activity of the compound.

Vero cells = assay: ATPLite cell viability assay; format: cell-based, African green monkey; conditions: individual experiments, listed as 64281802-AAA
Method: as §1

DENV-1 G3 Malaysia = format: cell-based; conditions: T108I in NS4B
DENV-2 RL strain = assay: In vivo kinetics study, low viral inoculum (10^2 PFU)
[2] = 0.2 mg/kg/d, day 1 p.i., individual mice
[3] = 0.2 mg/kg/d, day 2 p.i., individual mice
[4] = 0.2 mg/kg/d, day 3 p.i., individual mice
[5] = 0.2 mg/kg/d, day 4 p.i., individual mice
[6] = 0.2 mg/kg/d, day 5 p.i., individual mice
[7] = 2 mg/kg/d, day 1 p.i., individual mice
[8] = 2 mg/kg/d, day 2 p.i., individual mice
[9] = 2 mg/kg/d, day 3 p.i., individual mice
[10] = 2 mg/kg/d, day 4 p.i., individual mice
[11] = 2 mg/kg/d, day 5 p.i., individual mice
[12] = 20 mg/kg/d, day 1 p.i., individual mice
[13] = 20 mg/kg/d, day 2 p.i., individual mice
[14] = 20 mg/kg/d, day 3 p.i., individual mice
[15] = 20 mg/kg/d, day 4 p.i., individual mice
[16] = 20 mg/kg/d, day 5 p.i., individual mice
[17] = JNJ-1802 0.2 mg/kg/d, day 5 p.i., individual mice, 0.2 mg/kg/day

Structure (SMILES): COc1cc(N[C@H](C(=O)c2c[nH]c3ccc(OC(F)(F)F)cc23)c2ccc(Cl)cc2OC)cc(S(C)(=O)=O)c1 [JNJ-1802]
- EC50 (DENV-3 G5 Brazil): 1.8 ± 1.4 nM
- EC90 (DENV-3 G5 Brazil): 3.8 ± 1.1 nM
- CC50 at 4 d ([1]; TOX d4 preseeding, individual experiments): 3040 nM
- CC50 ([1]; Vero): 2610 ± 470 nM
- CC50 ([1]; Vero with 50% HS): > 1500 nM
- CC50 (Vero cells; Vero cells in presence of 50% HS): > 2500 nM
- CC50 (Vero cells; Vero cells, TOX d4 preseeding): 3080 nM and 2400 nM and 2780 nM and 3520 nM and 2200 nM and 2320 nM and 2270 nM and 2310 nM and 2180 nM
- EC90 (DENV-1 G3 Malaysia): 3.04 ± 0.69 nM
- viral load vs vehicle (DENV-2 RL strain; 0.2 mg per kg per day b.i.d.): No significant reduction in viral load
- In vivo kinetics, Mean of Log10 (DENV-2 RL strain; 0.2 mg/kg/d, day 1 p.i., group mean): 2.59 Log10
- In vivo kinetics, Copies/ml (DENV-2 RL strain; [2]): 3.93E+02 Copies/ml
- In vivo kinetics, Log10 of Copies/ml (DENV-2 RL strain; [2]): 2.5940 Log10
- In vivo kinetics, Copies/ml (DENV-2 RL strain; [3]): 3.93E+02 Copies/ml and 5.27E+03 Copies/ml
- In vivo kinetics, Log10 of Copies/ml (DENV-2 RL strain; [3]): 2.5940 Log10 and 3.7220 Log10
- In vivo kinetics, Mean of Log10 (DENV-2 RL strain; 0.2 mg/kg/d, day 3 p.i., group mean): 3.28 Log10
- In vivo kinetics, Copies/ml (DENV-2 RL strain; [4]): 7.26E+03 Copies/ml and 3.93E+02 Copies/ml and 6.17E+04 Copies/ml
- In vivo kinetics, Log10 of Copies/ml (DENV-2 RL strain; [4]): 3.8609 Log10 and 2.5940 Log10 and 3.9537 Log10 and 4.7902 Log10
- In vivo kinetics, Mean of Log10 (DENV-2 RL strain; 0.2 mg/kg/d, day 4 p.i., group mean): 3.19 Log10
- In vivo kinetics, Copies/ml (DENV-2 RL strain; [5]): 3.93E+02 Copies/ml and 1.02E+04 Copies/ml and 4.96E+03 Copies/ml and 2.86E+03 Copies/ml and 9.30E+03 Copies/ml
- In vivo kinetics, Log10 of Copies/ml (DENV-2 RL strain; [5]): 2.5940 Log10 and 4.0085 Log10 and 3.6952 Log10 and 3.4564 Log10 and 3.9686 Log10
- In vivo kinetics, Mean of Log10 (DENV-2 RL strain; 0.2 mg/kg/d, day 5 p.i., group mean): 5.08 Log10
- In vivo kinetics, Copies/ml (DENV-2 RL strain; [6]): 8.17E+04 Copies/ml and 5.79E+05 Copies/ml and 1.02E+05 Copies/ml
- In vivo kinetics, Log10 of Copies/ml (DENV-2 RL strain; [6]): 4.9120 Log10 and 5.7623 Log10 and 4.6527 Log10 and 5.0605 Log10 and 5.0084 Log10
- In vivo kinetics, Mean of Log10 (DENV-2 RL strain; 2 mg/kg/d, day 1 p.i., group mean): 2.59 Log10
- In vivo kinetics, Copies/ml (DENV-2 RL strain; [7]): 3.93E+02 Copies/ml
- In vivo kinetics, Log10 of Copies/ml (DENV-2 RL strain; [7]): 2.5940 Log10
- In vivo kinetics, Mean of Log10 (DENV-2 RL strain; 2 mg/kg/d, day 2 p.i., group mean): 2.59 Log10
- In vivo kinetics, Copies/ml (DENV-2 RL strain; [8]): 3.93E+02 Copies/ml
- In vivo kinetics, Log10 of Copies/ml (DENV-2 RL strain; [8]): 2.5940 Log10
- In vivo kinetics, Mean of Log10 (DENV-2 RL strain; 2 mg/kg/d, day 3 p.i., group mean): 2.77 Log10
- In vivo kinetics, Copies/ml (DENV-2 RL strain; [9]): 3.93E+02 Copies/ml and 6.33E+03 Copies/ml
- In vivo kinetics, Log10 of Copies/ml (DENV-2 RL strain; [9]): 2.5940 Log10 and 3.8013 Log10
- In vivo kinetics, Mean of Log10 (DENV-2 RL strain; 2 mg/kg/d, day 4 p.i., group mean): 2.59 Log10
- In vivo kinetics, Copies/ml (DENV-2 RL strain; [10]): 3.93E+02 Copies/ml
- In vivo kinetics, Log10 of Copies/ml (DENV-2 RL strain; [10]): 2.5940 Log10
- In vivo kinetics, Mean of Log10 (DENV-2 RL strain; 2 mg/kg/d, day 5 p.i., group mean): 2.59 Log10
- In vivo kinetics, Copies/ml (DENV-2 RL strain; [11]): 3.93E+02 Copies/ml
- In vivo kinetics, Log10 of Copies/ml (DENV-2 RL strain; [11]): 2.5940 Log10
- In vivo kinetics, Mean of Log10 (DENV-2 RL strain; 20 mg/kg/d, day 1 p.i., group mean): 2.59 Log10
- In vivo kinetics, Copies/ml (DENV-2 RL strain; [12]): 3.93E+02 Copies/ml
- In vivo kinetics, Log10 of Copies/ml (DENV-2 RL strain; [12]): 2.5940 Log10
- In vivo kinetics, Mean of Log10 (DENV-2 RL strain; 20 mg/kg/d, day 2 p.i., group mean): 2.59 Log10
- In vivo kinetics, Copies/ml (DENV-2 RL strain; [13]): 3.93E+02 Copies/ml
- In vivo kinetics, Log10 of Copies/ml (DENV-2 RL strain; [13]): 2.5940 Log10
- In vivo kinetics, Mean of Log10 (DENV-2 RL strain; 20 mg/kg/d, day 3 p.i., group mean): 2.75 Log10
- In vivo kinetics, Copies/ml (DENV-2 RL strain; [14]): 3.93E+02 Copies/ml and 6.76E+03 Copies/ml
- In vivo kinetics, Log10 of Copies/ml (DENV-2 RL strain; [14]): 2.5940 Log10 and 3.8298 Log10
- In vivo kinetics, Mean of Log10 (DENV-2 RL strain; 20 mg/kg/d, day 4 p.i., group mean): 2.59 Log10
- In vivo kinetics, Copies/ml (DENV-2 RL strain; [15]): 3.93E+02 Copies/ml
- In vivo kinetics, Log10 of Copies/ml (DENV-2 RL strain; [15]): 2.5940 Log10
- In vivo kinetics, Mean of Log10 (DENV-2 RL strain; 20 mg/kg/d, day 5 p.i., group mean): 2.76 Log10
- In vivo kinetics, Copies/ml (DENV-2 RL strain; [16]): 3.93E+02 Copies/ml and 7.90E+03 Copies/ml
- In vivo kinetics, Log10 of Copies/ml (DENV-2 RL strain; [16]): 2.5940 Log10 and 3.8977 Log10
- effect on body weight (DENV-2 RL strain; 20, 2 or 0.2 mg per kg per day b.i.d., 6 days): did not affect body weight
- mean viral load vs vehicle (DENV-2 RL strain; 20 and 2 mg per kg per day b.i.d., on 6 out of 8 days): reduced to undetectable levels
- In vivo kinetics - viral RNA, Copies/ml (DENV-2 RL strain; [17]): 4.57E+04 Copies/ml and 9.46E+04 Copies/ml and 4.38E+05 Copies/ml
- In vivo kinetics - viral RNA, Log10 (DENV-2 RL strain; [17]): 4.6597 Log10 and 4.9759 Log10 and 5.6413 Log10
- In vivo kinetics - viral RNA, Mean of Log10 (DENV-2 RL strain; JNJ-1802 0.2 mg/kg/d, day 6 p.i., group mean): 4.69 Log10
- In vivo kinetics - viral RNA, Copies/ml (DENV-2 RL strain; JNJ-1802 0.2 mg/kg/d, day 6 p.i., individual mice, 0.2 mg/kg/day): 4.46E+04 Copies/ml and 2.63E+04 Copies/ml and 2.31E+04 Copies/ml and 1.84E+05 Copies/ml and 8.21E+04 Copies/ml and 8.40E+03 Copies/ml
